Assay results published in patent publication US7179823B1, “5-membered n-heterocyclic compounds with hypoglycemic and hypolipidemic activity” (Takeda Pharmaceutical Company Limited, priority 1999, dated 2007).
Read-outs that look alike come from different tables or passages of the source.

Experiments:
[1] = tested on: KKA^y mice; assay: Hypoglycemic and hypolipidemic actions in mice; format: in vivo; conditions: four days; for inhibition in vivo at 0.001 % / inhibition in vivo at 0.005 % / inhibition in vivo at 0.01 %: Mus musculus, po, 96 h; for inhibition in vivo at 0.005 %: 0.005% in powdery diet; for inhibition in vivo at 0.01 %: 0.01% in powdery diet
Description: Hypoglycemic and Hypolipidemic Actions in Mice
Test compounds were mixed in a powdery diet (CE-2, Japan Clea) at the concentration of 0.01% (compounds of Examples 12, 30, 89, 186), 0.005% (compounds of Examples 7, 80, 82, 181, 182, 184, 256, 262, 283), 0.001% (compounds of Examples 9, 104, 110, 155, 156, 160, 167, 169, 172, 174, 176, 189), or 0.0003% (compounds of Examples 38, 40, 44), and freely given to KKA^y mice (9 to 12 weeks old, 5 mice in a group), a model of obese and type 2 diabetes mellitus, for four days. During this period, water was given freely. Blood was sampled from orbital venous plexus, and glucose and triglyceride levels in plasma separated from blood were determined enzymatically using L type Wako Glu2 (Wako Pure Chemical Industries, Ltd.) or L type Wako TG•H (Wako Pure Chemical Industries, Ltd.), respectively.
In the Table, the value of each treatment group is represented as percent reduction compared with the non-treatment group.

[2] = tested on: KKA^y mice; assay: Total cholesterol lowering action and plasma anti-arteriosclerosis index-enhancing action in mice; format: in vivo; conditions: 0.001% in powdery diet, four days, non-treatment group taken as 100%; for change in vivo at 0.001 % / inhibition in vivo at 0.001 %: Mus musculus, po, 96 h; for change in vivo at 0.001 %: read-out: Plasma anti-arteriosclerosis index-enchancing action (%)
Description: Total Cholesterol Lowering Action and Plasma Anti-Arteriosclerosis Index-Enhancing Action in Mice
Test compounds were mixed in a powdery diet (CE-2, Japan Clea) at the concentration of 0.01% (compounds of Examples 12, 30, 89), 0.005% (compounds of Examples 38, 40, 44, 181, 184, 262, 283), or 0.001% (compounds of Examples 9, 156, 167, 172, 174, 176, 189), and freely given to KKA^y mice (9 to 12 weeks old, 5 mice per group), a model of obese and type 2 diabetes mellitus, for four days. During this period, water was given freely. Blood was sampled from orbital venous plexus and plasma was separated. Total cholesterol levels were determined by using L type Wako Cholesterol (Wako Pure Chemical Industries, Ltd.). Precipitation reagent for apoB containing lipoprotein was added to a part of the plasma to precipitate non-HDL lipoprotein, and cholesterol (HDL cholesterol) in the resulting supernatant was determined. The plasma anti-arteriosclerosis index [(HDL cholesterol/total cholesterol)×100] was calculated by using these cholesterol levels.
In the Table, “Total cholesterol lowering action (%)” represents the percent reduction (%) of total cholesterol level in the treatment group, when the total cholesterol level in the non-treatment group is taken as 100%. “Plasma anti-arteriosclerosis index-enhancing action (%)” represents the percent increase (%) of plasma anti-arteriosclerosis index in the treatment group, when the plasma anti-arteriosclerosis index in the non-treatment group is taken as 100%.

[3] = 0.001% in powdery diet, percent reduction of plasma glucose compared with the non-treatment group, read-out: Hypoglycemic action (%)
[4] = 0.001% in powdery diet, percent reduction of plasma triglyceride compared with the non-treatment group, read-out: Hypolipidemic action (%)
[5] = percent increase of [(HDL cholesterol/total cholesterol)×100]
[6] = percent reduction of plasma total cholesterol
[7] = percent reduction of plasma glucose compared with the non-treatment group, read-out: Hypoglycemic action (%)
[8] = percent reduction of plasma triglyceride compared with the non-treatment group, read-out: Hypolipidemic action (%)

| melting point [°C] | SMILES | inhibition in vivo at 0.001 % [1, 3] [%] | inhibition in vivo at 0.001 % [1, 4] [%] | also measured |
| --- | --- | --- | --- | --- |
| – | CCOc1nn(Cc2ccc(OCc3nc(-c4ccccc4)oc3C)cc2)cc1CCC(=O)O [Example 155, 3-[3-ethoxy-1-[4-(5-methyl-2-phenyl-4-oxazolylmethoxy)benzyl]-1H-pyrazol-4-yl]propionic acid] | 49 | 56 | – |
| – | CCCOc1nn(Cc2ccc(OCc3nc(-c4ccccc4)oc3C)cc2)cc1CCC(=O)O [Example 156, 3-[1-[4-(5-methyl-2-phenyl-4-oxazolylmethoxy)benzyl]-3-propyloxy-1H-pyrazol-4-yl]propionic acid] | 45 | 80 | change in vivo at 0.001 % [2, 5]: 15%; inhibition in vivo at 0.001 % [2, 6]: 20% |
| 108 to 109 | Cc1oc(-c2ccccc2)nc1COc1ccc(Cn2cc(CCC(=O)O)c(OCc3ccccc3)n2)cc1 [Example 160, 3-[3-benzyloxy-1-[4-(5-methyl-2-phenyl-4-oxazolylmethoxy)benzyl]-1H-pyrazol-4-yl]propionic acid] | 54 | 57 | – |
| – | CCOc1nn(Cc2ccc(OCc3nc(-c4ccco4)oc3C)cc2)cc1CCC(=O)O [Example 167, 3-[3-ethoxy-1-[4-[2-(2-furyl)-5-methyl-4-oxazolylmethoxy]benzyl]-1H-pyrazol-4-yl]propionic acid] | 48 | 60 | change in vivo at 0.001 % [2, 5]: 9%; inhibition in vivo at 0.001 % [2, 6]: 19% |
| – | Cc1oc(-c2ccco2)nc1COc1ccc(Cn2cc(CCC(=O)O)c(OCc3ccccc3)n2)cc1 [Example 169, 3-[3-benzyloxy-1-[4-[2-(2-furyl)-5-methyl-4-oxazolylmethoxy]benzyl]-1H-pyrazol-4-yl]propionic acid] | 48 | 39 | – |
| – | CCOc1nn(Cc2ccc(OCc3nc(-c4ccccc4)oc3C)c(OC)c2)cc1CCC(=O)O [Example 172, 3-[3-ethoxy-1-[3-methoxy-4-(5-methyl-2-phenyl-4-oxazolylmethoxy)benzyl]-1H-pyrazol-4-yl]propionic acid] | 42 | 62 | change in vivo at 0.001 % [2, 5]: 11%; inhibition in vivo at 0.001 % [2, 6]: 20% |
| – | CCOc1nn(Cc2ccc(OCc3nc(-c4ccco4)oc3C)c(OC)c2)cc1CCC(=O)O [Example 174, 3-[3-ethoxy-1-[4-[2-(2-furyl)-5-methyl-4-oxazolylmethoxy]-3-methoxybenzyl]-1H-pyrazol-4-yl]propionic acid] | 40 | 52 | change in vivo at 0.001 % [2, 5]: 10%; inhibition in vivo at 0.001 % [2, 6]: 19% |
| – | CCOc1nn(Cc2ccc(OCc3nc(-c4cccs4)oc3C)c(OC)c2)cc1CCC(=O)O [Example 176] | – | – | Hypoglycemic action (%) ([1]; 0.001% in powdery diet, percent reduction of plasma glucose compared with the non-treatment group): 40%; Hypolipidemic action (%) ([1]; 0.001% in powdery diet, percent reduction of plasma triglyceride compared with the non-treatment group): 66%; Plasma anti-arteriosclerosis index-enchancing action (%) [2, 5]: 11%; Total cholesterol lowering action (%) [2, 6]: 23% |
| – | CCOc1nn(Cc2ccc(OCc3nc(-c4ccccc4)sc3C)cc2)cc1CCC(=O)O [Example 182, 3-[3-ethoxy-1-[4-(5-methyl-2-phenyl-4-thiazolylmethoxy)benzyl]-1H-pyrazol-4-yl]propionic acid] | – | – | inhibition in vivo at 0.005 % [1, 7]: 34%; inhibition in vivo at 0.005 % [1, 8]: 12% |
| – | CCOc1nn(Cc2ccc(OCc3coc(-c4ccccc4)n3)cc2)cc1CCC(=O)O [Example 186, 3-[3-ethoxy-1-[4-(2-phenyl-4-oxazolylmethoxy)benzyl]-1H-pyrazol-4-yl]propionic acid] | – | – | inhibition in vivo at 0.01 % [1, 7]: 57%; inhibition in vivo at 0.01 % [1, 8]: 78% |
| 98 to 99 | CCOC(=O)c1cn(Cc2ccc(Oc3ccccc3)cc2)nc1OCc1ccc(OCc2nc(-c3ccco3)oc2C)c(OC)c1 [Example 321, ethyl 3-[4-[2-(2-furyl)-5-methyl-4-oxazolylmethoxy]-3-methoxybenzyloxy]-1-(4-phenoxybenzyl)-1H-pyrazole-4-carboxylate] | – | – | – |
| 153 to 154 | COc1cc(COc2nn(Cc3ccc(Oc4ccccc4)cc3)cc2C(=O)O)ccc1OCc1nc(-c2ccco2)oc1C [Example 322, 3-[4-[2-(2-furyl)-5-methyl-4-oxazolylmethoxy]-3-methoxybenzyloxy]-1-(4-phenoxybenzyl)-1H-pyrazole-4-carboxylic acid] | – | – | – |
| 105 to 106 | COc1cc(COc2nn(Cc3ccc(Oc4ccccc4)cc3)cc2C(N)=O)ccc1OCc1nc(-c2ccco2)oc1C [Example 323, 3-[4-[2-(2-furyl)-5-methyl-4-oxazolylmethoxy]-3-methoxybenzyloxy]-1-(4-phenoxybenzyl)-1H-pyrazole-4-carbamide] | – | – | – |
| 127 to 128 | CCOC(=O)c1cn(Cc2ccc(Oc3ccccc3)cc2)nc1OCc1ccc(OCc2nc(-c3ccccc3)oc2C)c(OC)c1 [Example 324, ethyl 3-[3-methoxy-4-(5-methyl-2-phenyl-4-oxazolylmethoxy)benzyloxy]-1-(4-phenoxybenzyl)-1H-pyrazole-4-carboxylate] | – | – | – |
| 144 to 145 | Cc1oc(-c2ccco2)nc1COc1ccc(COc2nn(Cc3ccc(OCc4nc(-c5ccco5)oc4C)cc3)cc2C(=O)O)cc1 [Example 326, 1-[4-[2-(2-furyl)-5-methyl-4-oxazolylmethoxy]benzyl]-3-[4-[2-(2-furyl)-5-methyl-4-oxazolylmethoxy]benzyloxy]-1H-pyrazole-4-carboxylic acid] | – | – | – |
| 96 to 97 | CCOC(=O)c1cn(Cc2ccc(Oc3ccccc3)cc2)nc1OCc1nc(-c2ccccc2)oc1C [Example 329, ethyl 3-(5-methyl-2-phenyl-4-oxazolylmethoxy)-1-(4-phenoxybenzyl)-1H-pyrazole-4-carboxylate] | – | – | – |
| 222 to 223 | Cc1oc(-c2ccccc2)nc1COc1nn(Cc2ccc(Oc3ccccc3)cc2)cc1C(=O)O [Example 330, 3-(5-methyl-2-phenyl-4-oxazolylmethoxy)-1-(4-phenoxybenzyl)-1H-pyrazole-4-carboxylic acid] | – | – | – |
| 158 to 159 | Cc1oc(-c2ccccc2)nc1COc1nn(Cc2ccc(Oc3ccccc3)cc2)cc1C(N)=O [Example 331, 3-(5-methyl-2-phenyl-4-oxazolylmethoxy)-1-(4-phenoxybenzyl)-1H-pyrazole-4-carbamide] | – | – | – |
| 93 to 94 | CCOC(=O)/C=C/c1cn(Cc2ccc(Oc3ccccc3)cc2)nc1OCc1nc(-c2ccccc2)oc1C [Example 332, ethyl(E)-3-[3-(5-methyl-2-phenyl-4-oxazolylmethoxy)-1-(4-phenoxybenzyl)-1H-pyrazol-4-yl]propenoate] | – | – | – |
| 210 to 211 | Cc1oc(-c2ccccc2)nc1COc1nn(Cc2ccc(Oc3ccccc3)cc2)cc1/C=C/C(=O)O [Example 333, (E)-3-[3-(5-methyl-2-phenyl-4-oxazolylmethoxy)-1-(4-phenoxybenzyl)-1H-pyrazol-4-yl]propenoic acid] | – | – | – |
| 120 to 121 | Cc1oc(-c2ccccc2)nc1COc1nn(Cc2ccc(Oc3ccccc3)cc2)cc1CCC(=O)O [Example 335, 3-[3-(5-methyl-2-phenyl-4-oxazolylmethoxy)-1-(4-phenoxybenzyl)-1H-pyrazol-4-yl]propionic acid] | – | – | – |
